The test system of test [1] is PPIs of the SKEMPI data set (by PDBID). As to the kind of experiment: SKEMPI experimental ΔΔG, single mutations to alanine. The test is classed as binding.
For test [2] the test system is unchanged. The following applies: cited from earlier work.
Test [3] has the same test system. The following applies: Flex_ddG Ref2015, 1 REU = 1 kcal/mol assumed; cited from earlier work.
Test [4] shares this test system. Conditions: Flex_ddG Talaris2014, 1 REU = 1 kcal/mol assumed; cited from earlier work.

With 1A22 TA3A, the sk_class result in test [1] (class of the SKEMPI experimental ΔΔG) and in test [1] (class of the experimental SKEMPI ΔΔG) was “Neutral (neutral (little effect) 4.184 kJ/mol < ΔΔG > −4.184 kJ/mol)” in each case. Besides, the sk_ddG_kJ in test [2] (experimental ΔΔG of single mutation to alanine, SKEMPI database) was -0.0502 kcal/mol. The “sk_ddG_kJ (SKEMPI experimental ΔΔG)” value in test [2] (single mutation to alanine, complex given by PDBID, mutation by mut_pdb, ref SKEMPI) is recorded as -0.21 kJ. The ref2015_ddG_kJ in test [3] is 0.0717 kcal/mol. The rosetta_ddG_kJ in test [4] is -0.0406 kcal/mol.

Values taken from PMC6804253, “Predicting and Experimentally Validating Hot-Spot Residues at Protein–Protein Interfaces” (ACS Chemical Biology, 2019).
